In patent US20060079552A1, “1-[2-(4-benzyl-4-hydroxy-piperidin-1-yl)-ethyl]-3-(2-methyl-quinolin-4-yl)-urea salt” (priority 2004, published 2006):
Values after ≈ are worked out from the molar mass of the structure shown. Counter-ions that a name gives are not always drawn.

Columns and labels:
[1] = Hygroscopicity, static method (European Pharmacopoeia Technical Guide), weight increase in humidity cabinet; assay type: physicochemical; conditions: for Increase in weight (Δm): after exposure to 79% RH for 24 h, RT
Protocol: Hygroscopicity was evaluated using the static method according to European Pharmacopoeia Technical Guide. Weight increase of the compound was observed when stored in a humidity cabinet at RT/79% RH for 24 h.

[2] = Solubility in water and aqueous phosphate buffer pH 7; assay type: physicochemical; conditions: for Solubility Buffer pH 7 (phosphate, 100 mM): aqueous phosphate buffer pH 7, 100 mM
Protocol: Solubility was measured in water and aqueous phosphate buffer (pH=7, 100 mM). Results are expressed as mg dissolved compound per mL solvent.

[3] = Pharmacokinetic assessment after oral (gavage) administration in rats; assay type: in vivo, male Wistar rats; conditions: for mean exposure, area under the curve (AUC0-inf.): oral (gavage) 10 mg per kg, male Wistar rats, blood samples over 24 h
Protocol: The pharmacokinetic parameters after oral (gavage) administration of 10 mg per kg of 1-[2-(4-benzyl-4-hydroxy-piperidin-1-yl )-ethyl]-3-(2-methyl-quinolin-4-yl )-urea given as free base or sulfate salt have been determined in male Wistar rats. Blood samples were taken over a time period of 24 h after dosing and analysed with a specific and sensitive liquid chromatography-mass-spectrometry (LC-MS/MS) method. Pharmacokinetic parameters were calculated using a non-compartmental method. The mean exposure of 1-[2-(4-benzyl-4-hydroxy-piperidin-1-yl)-ethyl]-3-(2-methyl-quinolin-4-yl)-urea, expressed as area under the curve (AUC0-inf.), after administration of compound I as free base was 194 ng*h/mL. The mean exposure of 1-[2-(4-benzyl-4-hydroxy-piperidin-1-yl )-ethyl]-3-(2-methyl-quinolin-4-yl )-urea expressed as area under the curve (AUC0-inf.), after administration of the compound described in Example 1 was 396 ng*h/mL.

[4] = Stress test / behaviour at higher temperature and higher humidity; assay type: physicochemical
Protocol: NMR spectra were recorded on a Varian Mercury 300VX NMR Spectrometer. The spectra are referenced to tetramethylsilane as external standard. X-ray diffraction patterns (XRD) were recorded on a Bruker D5000, using a CU-Kalpha (1.5418 Å) source, a 40 kV-30 mA generator, in a range of 3 et 40° (2theta). Stress test studies were done by exposing samples in open and closed glass bottles to the following conditions: 60° C./80% RH (8 weeks) and 80° C./RH not controlled (48 h).

[5] = target: T1, urotensin II receptor (Homo sapiens, UniProt Q9UKP6); conditions: Clozel et al., J. Pharmcol. Exp. Ther. 2004, 311, 204-212; cited from earlier work
T1 sequence (Q9UKP6 1-389): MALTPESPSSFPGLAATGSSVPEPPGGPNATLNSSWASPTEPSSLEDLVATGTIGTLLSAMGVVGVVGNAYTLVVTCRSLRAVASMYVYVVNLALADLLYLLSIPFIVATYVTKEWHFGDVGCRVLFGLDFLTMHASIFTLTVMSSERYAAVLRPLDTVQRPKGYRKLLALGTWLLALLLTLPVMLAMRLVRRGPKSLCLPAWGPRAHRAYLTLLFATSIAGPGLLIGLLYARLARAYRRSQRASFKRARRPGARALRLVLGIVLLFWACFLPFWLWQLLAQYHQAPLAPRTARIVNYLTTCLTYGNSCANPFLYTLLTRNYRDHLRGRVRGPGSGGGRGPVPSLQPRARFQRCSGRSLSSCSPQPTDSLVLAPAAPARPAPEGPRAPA

SMILES: Cc1cc(NC(=O)NCCN2CCC(O)(Cc3ccccc3)CC2)c2ccccc2n1 [Compound I, 1-[2-(4-Benzyl-4-hydroxy-piperidin-1-yl)-ethyl]-3-(2-methyl-quinolin4-yl)-urea]
- hygroscopicity (in words) [1]: hygroscopic
- Increase in weight (Δm) ([1]; listed as Compound I as free base): 8%
- Solubility Buffer pH 7 (phosphate, 100 mM) [2]: 0.31 mg/mL
- Solubility water ([2]; water): 0.8 mg/mL (≈ 1910 µM)
- solubility in water at pH 7 (in words) ([2]; water at pH 7): slightly soluble
- mean exposure, area under the curve (AUC0-inf.) ([3]; listed as compound I as free base): 194 ng·h/mL
- bioavailability after oral dosing ([3]; rat, oral dosing): low bioavailability
- agglomeration [4]: agglomerates to a substance cake
- colour stability [4]: its colour changes at higher temperature and higher humidity
- urotensin II receptor antagonism [5]: potent urotensin II receptor antagonist

SMILES: Cc1cc(NC(=O)NCCN2CCC(O)(Cc3ccccc3)CC2)c2ccccc2n1 [Example 1, 1-[2-(4-Benzyl-4-hydroxy-piperidin-1-yl)-ethyl]-3-(2-methyl-quinolin-4-yl)-urea sulfate]
- mean exposure, area under the curve (AUC0-inf.) ([3]; sulfate): 396 ng·h/mL

SMILES: Cc1cc(NC(=O)NCCN2CCC(O)(Cc3ccccc3)CC2)c2ccccc2n1 [Example 2, 1-[2-(4-Benzyl-4-hydroxy-piperidin-1-yl)-ethyl]-3-(2-methyl-quinolin-4-yl)-urea sulfate]
- Increase in weight (Δm) ([1]; sulfate): 4%
- Solubility Buffer pH 7 (phosphate, 100 mM) ([2]; sulfate): 27 mg/mL
- Solubility water ([2]; water, sulfate): 11.3 mg/mL

SMILES: Cc1cc(NC(=O)NCCN2CCC(O)(Cc3ccccc3)CC2)c2ccccc2n1 [Example 5, 1-[2-(4-Benzyl-4-hydroxy-piperidin-1-yl)-ethyl]-3-(2-methyl-quinolin-4-yl)-urea malate]
- Solubility water ([2]; water, malate): >101 mg/mL

SMILES: Cc1cc(NC(=O)NCCN2CCC(O)(Cc3ccccc3)CC2)c2ccccc2n1.O=C(O)CC(O)(CC(=O)O)C(=O)O [Example 6, 1-[2-(4-Benzyl-4-hydroxy-piperidin-1-yl)-ethyl]-3-(2-methyl-quinolin-4-yl)-urea citrate]
- solubility ([2]; water): 17.8 mg/mL
